According to the NIST ThermoML archive (doi:10.1016/j.jct.2016.10.023):
Numbers after ± are expanded uncertainties.

Assay: xn = mol fraction of the nth substance listed
Conditions: Constant-volume piezometry

CCCCC [pentane] + CCCO
Conditions	mass density [kg/m3]
483.15 K, 3273 kPa, Gas, x1 = 0.5	89.08 ± 0.28
483.15 K, 3361 kPa, Gas, x1 = 0.5	96.03 ± 0.32
483.15 K, 3529 kPa, Gas, x1 = 0.8	106.6 ± 0.35
483.15 K, 3605 kPa, Fluid (supercritical or subcritical phases), x1 = 0.9	123.58 ± 1.1
483.15 K, 3709 kPa, Fluid (supercritical or subcritical phases), x1 = 0.9	134.38 ± 0.85
483.15 K, 3900 kPa, Fluid (supercritical or subcritical phases), x1 = 0.9	164.27 ± 1
483.15 K, 3917 kPa, Fluid (supercritical or subcritical phases), x1 = 0.8	140.58 ± 1
483.15 K, 3927 kPa, Liquid, x1 = 0.5	373.66 ± 0.76
483.15 K, 3981 kPa, Fluid (supercritical or subcritical phases), x1 = 0.8	156.35 ± 1
483.15 K, 4002 kPa, Fluid (supercritical or subcritical phases), x1 = 0.9	189.82 ± 1.2
483.15 K, 4026 kPa, Liquid, x1 = 0.5	384.78 ± 0.79
483.15 K, 4033 kPa, Fluid (supercritical or subcritical phases), x1 = 0.8	170.11 ± 1.1
483.15 K, 4049 kPa, Fluid (supercritical or subcritical phases), x1 = 0.9	202.77 ± 1.2
483.15 K, 4053 kPa, Fluid (supercritical or subcritical phases), x1 = 0.8	176.37 ± 1.1
483.15 K, 4071 kPa, Fluid (supercritical or subcritical phases), x1 = 0.8	181.18 ± 1.1
483.15 K, 4106 kPa, Fluid (supercritical or subcritical phases), x1 = 0.8	193.54 ± 1.1
483.15 K, 4109 kPa, Fluid (supercritical or subcritical phases), x1 = 0.9	221.12 ± 1.3
483.15 K, 4156 kPa, Fluid (supercritical or subcritical phases), x1 = 0.9	233.52 ± 1.4
483.15 K, 4162 kPa, Fluid (supercritical or subcritical phases), x1 = 0.8	214.27 ± 1.2
483.15 K, 4171 kPa, Fluid (supercritical or subcritical phases), x1 = 0.9	236.99 ± 1.4
483.15 K, 4179 kPa, Fluid (supercritical or subcritical phases), x1 = 0.8	220.05 ± 1.3
483.15 K, 4189 kPa, Fluid (supercritical or subcritical phases), x1 = 0.9	241.4 ± 1.4
483.15 K, 4200 kPa, Fluid (supercritical or subcritical phases), x1 = 0.9	244.72 ± 1.4
483.15 K, 4211 kPa, Fluid (supercritical or subcritical phases), x1 = 0.8	235.17 ± 1.3
483.15 K, 4239 kPa, Fluid (supercritical or subcritical phases), x1 = 0.8	245.83 ± 1.3
483.15 K, 4277 kPa, Fluid (supercritical or subcritical phases), x1 = 0.8	259.08 ± 1.4
483.15 K, 4309 kPa, Fluid (supercritical or subcritical phases), x1 = 0.9	282.57 ± 1.5
483.15 K, 4317 kPa, Fluid (supercritical or subcritical phases), x1 = 0.8	273.08 ± 1.5
483.15 K, 4417 kPa, Fluid (supercritical or subcritical phases), x1 = 0.8	288.96 ± 1.5
483.15 K, 4435 kPa, Fluid (supercritical or subcritical phases), x1 = 0.9	302.29 ± 1.6
483.15 K, 4437 kPa, Liquid, x1 = 0.5	398.98 ± 0.82
483.15 K, 4493 kPa, Fluid (supercritical or subcritical phases), x1 = 0.8	299.8 ± 1.6
483.15 K, 4551 kPa, Fluid (supercritical or subcritical phases), x1 = 0.9	312.96 ± 1.6
483.15 K, 4646 kPa, Fluid (supercritical or subcritical phases), x1 = 0.8	316.01 ± 1.6
483.15 K, 4807 kPa, Liquid, x1 = 0.2	510.78 ± 1
483.15 K, 4877 kPa, Fluid (supercritical or subcritical phases), x1 = 0.9	334.72 ± 1.7
483.15 K, 4915 kPa, Fluid (supercritical or subcritical phases), x1 = 0.8	334.54 ± 1.7
483.15 K, 5017 kPa, Liquid, x1 = 0.5	418.13 ± 0.85
483.15 K, 5178 kPa, Fluid (supercritical or subcritical phases), x1 = 0.8	346.09 ± 1.7
483.15 K, 5428 kPa, Fluid (supercritical or subcritical phases), x1 = 0.9	354.86 ± 1.8
483.15 K, 5641 kPa, Fluid (supercritical or subcritical phases), x1 = 0.8	362.7 ± 1.8
483.15 K, 6347 kPa, Liquid, x1 = 0.5	441.94 ± 0.9
483.15 K, 7296 kPa, Liquid, x1 = 0.5	452.28 ± 0.92
483.15 K, 8060 kPa, Liquid, x1 = 0.5	459.37 ± 0.93
483.15 K, 8482 kPa, Fluid (supercritical or subcritical phases), x1 = 0.9	408.19 ± 2
483.15 K, 8984 kPa, Fluid (supercritical or subcritical phases), x1 = 0.8	419.13 ± 2.1
483.15 K, 9371 kPa, Liquid, x1 = 0.5	469.23 ± 0.95
483.15 K, 10899 kPa, Liquid, x1 = 0.2	548.38 ± 1.1
483.15 K, 16393 kPa, Fluid (supercritical or subcritical phases), x1 = 0.8	467.78 ± 2.4
483.15 K, 16725 kPa, Liquid, x1 = 0.5	507.77 ± 1
483.15 K, 19754 kPa, Liquid, x1 = 0.5	520.6 ± 1.1
483.15 K, 21392 kPa, Liquid, x1 = 0.2	582.82 ± 1.2
483.15 K, 24098 kPa, Fluid (supercritical or subcritical phases), x1 = 0.8	497.3 ± 2.5
483.15 K, 27685 kPa, Liquid, x1 = 0.2	596.46 ± 1.2
483.15 K, 28654 kPa, Liquid, x1 = 0.5	549.54 ± 1.1
483.15 K, 34153 kPa, Fluid (supercritical or subcritical phases), x1 = 0.8	521.9 ± 2.6
483.15 K, 37683 kPa, Liquid, x1 = 0.2	615.9 ± 1.3
484.15 K, 3395 kPa, Gas, x1 = 0.5	96.03 ± 0.31
485.15 K, 3427 kPa, Gas, x1 = 0.5	96.02 ± 0.32
486.15 K, 3456 kPa, Gas, x1 = 0.5	96.02 ± 0.33
487.15 K, 3750 kPa, Gas, x1 = 0.5	122.1 ± 0.41
487.15 K, 4130 kPa, Liquid, x1 = 0.5	345.19 ± 0.72
488.15 K, 3498 kPa, Gas, x1 = 0.5	96.01 ± 0.34
488.15 K, 3783 kPa, Gas, x1 = 0.5	122.1 ± 0.41
488.15 K, 4237 kPa, Liquid, x1 = 0.5	345.17 ± 0.72
489.15 K, 3815 kPa, Gas, x1 = 0.5	122.09 ± 0.42
489.15 K, 4203 kPa, Liquid, x1 = 0.5	325.83 ± 0.68
490.15 K, 3453 kPa, Liquid, x1 = 0.2	471.25 ± 0.96
491.15 K, 4012 kPa, Gas, x1 = 0.5	144.34 ± 0.49

mass density [kg/m3], Liquid
Conditions	486.15 K	488.75 K	489.55 K	489.85 K	491.65 K
x1 = 0.2	–	–	–	471.25 ± 2.8	–
x1 = 0.5	345.21 ± 2.1	325.84 ± 2	320.54 ± 1.9	–	299.15 ± 1.8
